# Test results taken from patent publication EP4790048A1, “S1PR4 REGULATOR COMPOUND FOR AUTOIMMUNE DISEASE TREATMENT AND APPLICATION THEREOF” (Shengyuan Zetong (Shanghai) Pharmaceutical Co., Ltd, priority 2023, dated 2025).
# Key:
# S1PR4 = biological target: T1, S1PR4 (Homo sapiens, UniProt O95977); assay: S1PR4 internalization and recovery test in S1PR4-293T cells; assay type: cell-based; conditions: 1 µM, 37 °C, 1.5 hours; detected immediately, 5 hours or 20 hours after treatment
# T1 construct: expressed in transfected cells; host or cells: 293T
# T1 sequence (O95977 1-384): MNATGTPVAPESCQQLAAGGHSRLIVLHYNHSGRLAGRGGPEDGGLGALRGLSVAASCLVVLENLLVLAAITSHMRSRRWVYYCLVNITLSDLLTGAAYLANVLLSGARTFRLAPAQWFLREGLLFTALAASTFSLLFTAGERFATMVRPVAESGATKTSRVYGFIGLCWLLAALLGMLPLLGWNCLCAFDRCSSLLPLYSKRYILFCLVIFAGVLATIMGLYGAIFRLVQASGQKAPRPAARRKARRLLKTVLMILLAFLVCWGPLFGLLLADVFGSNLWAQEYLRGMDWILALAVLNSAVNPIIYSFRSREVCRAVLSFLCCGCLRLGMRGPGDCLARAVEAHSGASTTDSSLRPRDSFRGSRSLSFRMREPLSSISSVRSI
# Protocol: Therefore, the recovery degree of S1PR4 after internalization caused by Compound 30 was evaluated, and the recovery effect following receptor internalization caused by Compound 30 was assessed in cells with high S1PR4 expression.
# BALB/c mice = assay: DSS-induced acute ulcerative colitis in mice (Example 6); assay type: in vivo; conditions: for survival rate: 8 mice, model group 75%
# Protocol: From Day 0 to Day 14 of the experiment, the mice were weighed daily and their blood and stool conditions were observed, scored and recorded according to the following table (Table 1). Random grouping was performed on Day 1, and modeling was conducted from Day 1 to Day 7. All groups except the Control group were given 3.5% DSS water daily. Re-grouping was performed on Day 8. The Control group and Model group received no medication and were given tap water; the other groups were administered intragastrically with 1 mg/kg, 3 mg/kg, 9 mg/kg, and SASP (Sulfasalazine or Salicylazosulfapyridine) 500 mg/kg, respectively. On Day 15, blood and colon samples were collected, colon length was measured, and a 1-2 cm segment of the colon was fixed with formaldehyde.
# • BALB/c mice, male, 20-22 g • Dextran sulfate sodium MW: 36,000-50,000 (DSS) • 30 1 mg/kg, 3 mg/kg, 9 mg/kg, SASP (500 mg/kg) indicators were observed.
# (1) Clinical Symptom Score: The mice were weighed daily and their blood and stool were observed during the experiment for DAI scoring, which was graded and recorded according to the following table (Table 1).
# (2) After the experiment, the colon was removed, its length measured and weight recorded. The colon-to-body weight index (colon weight/body weight × 100%) and colon swelling rate (colon weight/length × 100%) were calculated.
# Colonic tissue approximately 1 cm from the anal margin (0.5 cm) and ileocecal region tissue were collected for histopathological examination. After H&E staining, the tissues were scored under single-blind conditions to evaluate the level of distal colon inflammation and tissue damage; scoring was performed according to the Ameho criteria and calculated as follows: • Score 0: No abnormal findings in the texture. • Score 1: Mild inflammatory infiltration of the mucosa and/or submucosa (mixed with neutrophils), submucosal edema, punctate mucosal erosion, accompanied by capillary proliferation. The muscularis mucosae is intact. • Score 2: Changes of Score 1 account for more than 50%. • Score 3: Obvious inflammatory infiltration and edema (neutrophils are often predominant); ulcers usually penetrate the muscularis mucosae to reach the submucosa. There is little inflammatory cell infiltration in the muscularis propria and no muscle necrosis. • Score 4: Changes of Score 3 account for more than 50%. • Score 5: Large confluent ulcers with coagulative necrosis, massive neutrophil infiltration at the margins and few monocytes. Necrotic tissue penetrates the muscularis propria. • Score 6: Changes of Score 5 account for more than 50% of the specimen.
# The fence function of Occludin separates the apical and basolateral sides of the epithelial cell plasma membrane, restricting the free flow of lipids on the cell membrane, facilitating the formation of cell polarity, maintaining the impermeability and rigidity of the intestinal mucosa, and preventing the entry of pathogenic microorganisms. The barrier function of Occludin can regulate the transport of small molecules and maintain tissue homeostasis. […]
smiles,measurement,setting,value
CCc1cc(/C(C)=N/OCc2ccc(-c3ccccc3)c(C)c2)ccc1CN1CC[C@H](C(=O)O)C1 [Compound 30],S1PR4 internalization (expression of S1PR4 receptor on the cell surface),S1PR4,sustained internalization of S1PR4 for up to 20 hours
same,survival rate,BALB/c mice; 30 1 mg/kg intragastric from Day 8,87.5%
same,colon length,"BALB/c mice; 30 1 mg/kg, p<0.05 vs Model group",significantly inhibited DSS-induced colon shortening
same,survival rate,BALB/c mice; 30 3 mg/kg intragastric from Day 8,87.5%
same,colon length,"BALB/c mice; 30 3 mg/kg, p<0.01 vs Model group",significantly inhibited DSS-induced colon shortening
same,total DAI scores over 14 days,"BALB/c mice; 30 3 mg/kg, vs model group",significantly lower
same,survival rate,BALB/c mice; 30 9 mg/kg intragastric from Day 8,75%
same,body weight recovery,"BALB/c mice; 30 at 3 mg/kg, SASP at 500 mg/kg, vs model group",faster body weight recovery with a greater rebound amplitude
same,colon pathological changes (H&E staining),BALB/c mice; 30 at 9 mg/kg,obvious inflammatory cell infiltration and reduced goblet cells
same,daily DAI score,"BALB/c mice; 30 treatment groups, SASP 500 mg/kg, vs model group",decreased more rapidly
same,colon pathological changes (H&E staining),BALB/c mice; Compound 30 1 mg/kg,no obvious inflammatory cell infiltration was observed
same,colon pathological changes (H&E staining),BALB/c mice; Compound 30 3 mg/kg,no obvious inflammatory cell infiltration was observed
same,Occludin expression in colonic mucosa (immunohistochemistry),BALB/c mice; vs Model group,the expression of Occludin was increased
same,Occludin protein in colon (Western blotting),BALB/c mice; vs Model group,increase the expression of Occludin
